Assays:
[1] = Drug metabolism in mouse xenografted with human NCI-H2122 cells assessed as M4 metabolite formation in heart at 50 mg/kg, ip after 3 hrs by LC-MS/MS analysis; format: ADME, organism-based; details: in vivo
[2] = Drug metabolism in mouse xenografted with human NCI-H2122 cells assessed as M1 metabolite formation in heart at 50 mg/kg, ip after 3 hrs by LC-MS/MS analysis; format: ADME, organism-based; details: in vivo
[3] = Drug metabolism in mouse xenografted with human NCI-H2122 cells assessed as M3 metabolite formation in heart at 50 mg/kg, ip after 3 hrs by LC-MS/MS analysis; format: ADME, organism-based; details: in vivo
[4] = Drug metabolism in mouse xenografted with human NCI-H2122 cells assessed as 6-amino-4-(2,5-dihydroxyphenyl)-3-(naphthalen-2-yl)-1,4-dihydropyrano[2,3-c]pyrazole-5-carbonitrile metabolite formation in liver at 50 mg/kg, ip after 3 hrs by LC-MS/MS analysis; format: ADME, organism-based; details: in vivo
[5] = Drug metabolism in mouse xenografted with human NCI-H2122 cells assessed as M5 metabolite formation in plasma at 50 mg/kg, ip after 3 hrs by LC-MS/MS analysis; format: ADME, organism-based; details: in vivo
[6] = Drug metabolism in mouse xenografted with human NCI-H2122 cells assessed as M5 metabolite formation in kidney at 50 mg/kg, ip after 3 hrs by LC-MS/MS analysis; format: ADME, organism-based; details: in vivo
[7] = Drug metabolism in mouse xenografted with human NCI-H2122 cells assessed as M4 metabolite formation in lungs at 50 mg/kg, ip after 3 hrs by LC-MS/MS analysis; format: ADME, organism-based, Lung; details: in vivo
[8] = Drug uptake in brain of mouse xenografted with human NCI-H2122 cells at 50 mg/kg, ip after 3 hrs by LC-MS/MS analysis; format: ADME, organism-based; details: read-out: Drug uptake
[9] = Drug uptake in liver of mouse xenografted with human NCI-H2122 cells at 50 mg/kg, ip after 3 hrs by LC-MS/MS analysis; format: ADME, organism-based; details: read-out: Drug uptake
[10] = Drug metabolism in CD1 mouse liver microsomes assessed as CYP450-mediated demethylation by measuring M4 metabolite formation at 16.7 uM after 10 mins in presence of NADPH by LC-MS/MS analysis; format: ADME
[11] = Drug metabolism in CD1 mouse liver microsomes assessed as CYP450-mediated mono-oxidation by measuring M1 metabolite formation at 16.7 uM after 10 mins in presence of NADPH by LC-MS/MS analysis; format: ADME
[12] = Drug metabolism in mouse xenografted with human NCI-H2122 cells assessed as M4 metabolite formation in tumor at 50 mg/kg, ip after 3 hrs by LC-MS/MS analysis; format: ADME, organism-based, Neoplasm; details: in vivo
[13] = Drug metabolism in mouse xenografted with human NCI-H2122 cells assessed as 6-amino-4-(2,5-dihydroxyphenyl)-3-(naphthalen-2-yl)-1,4-dihydropyrano[2,3-c]pyrazole-5-carbonitrile metabolite formation in tumor at 50 mg/kg, ip after 3 hrs by LC-MS/MS analysis; format: ADME, organism-based, Neoplasm; details: in vivo
[14] = Drug metabolism in mouse xenografted with human NCI-H2122 cells assessed as M1 metabolite formation in plasma at 50 mg/kg, ip after 3 hrs by LC-MS/MS analysis; format: ADME, organism-based; details: in vivo
[15] = Drug metabolism in mouse xenografted with human NCI-H2122 cells assessed as 6-amino-4-(2,5-dihydroxyphenyl)-3-(naphthalen-2-yl)-1,4-dihydropyrano[2,3-c]pyrazole-5-carbonitrile metabolite formation in lungs at 50 mg/kg, ip after 3 hrs by LC-MS/MS analysis; format: ADME, organism-based, Lung; details: in vivo
[16] = Drug metabolism in mouse xenografted with human NCI-H2122 cells assessed as M5 metabolite formation in tumor at 50 mg/kg, ip after 3 hrs by LC-MS/MS analysis; format: ADME, organism-based, Neoplasm; details: in vivo
[17] = Drug uptake in heart of mouse xenografted with human NCI-H2122 cells at 50 mg/kg, ip after 3 hrs by LC-MS/MS analysis; format: ADME, organism-based; details: read-out: Drug uptake
[18] = Drug metabolism in mouse xenografted with human NCI-H2122 cells assessed as M3 metabolite formation in liver at 50 mg/kg, ip after 3 hrs by LC-MS/MS analysis; format: ADME, organism-based; details: in vivo
[19] = Drug metabolism in mouse xenografted with human NCI-H2122 cells assessed as M5 metabolite formation in liver at 50 mg/kg, ip after 3 hrs by LC-MS/MS analysis; format: ADME, organism-based; details: in vivo
[20] = Drug metabolism in mouse xenografted with human NCI-H2122 cells assessed as 6-amino-4-(2,5-dihydroxyphenyl)-3-(naphthalen-2-yl)-1,4-dihydropyrano[2,3-c]pyrazole-5-carbonitrile metabolite formation in plasma at 50 mg/kg, ip after 3 hrs by LC-MS/MS analysis; format: ADME, organism-based; details: in vivo
[21] = Drug metabolism in mouse xenografted with human NCI-H2122 cells assessed as M1 metabolite formation in kidney at 50 mg/kg, ip after 3 hrs by LC-MS/MS analysis; format: ADME, organism-based; details: in vivo
[22] = Drug metabolism in CD1 mouse liver microsomes assessed as CYP450-mediated mono-oxidation by measuring 6-amino-4-(2,5-dihydroxyphenyl)-3-(naphthalen-2-yl)-1,4-dihydropyrano[2,3-c]pyrazole-5-carbonitrile metabolite formation at 16.7 uM after 10 mins in presence of NADPH by LC-MS/MS analysis; format: ADME
[23] = Drug metabolism in CD1 mouse liver microsomes assessed as CYP450-mediated mono-oxidation by measuring M5 metabolite formation at 16.7 uM after 10 mins in presence of NADPH by LC-MS/MS analysis; format: ADME
[24] = Drug metabolism in mouse xenografted with human NCI-H2122 cells assessed as 6-amino-4-(2,5-dihydroxyphenyl)-3-(naphthalen-2-yl)-1,4-dihydropyrano[2,3-c]pyrazole-5-carbonitrile metabolite formation in kidney at 50 mg/kg, ip after 3 hrs by LC-MS/MS analysis; format: ADME, organism-based; details: in vivo
[25] = Drug metabolism in mouse xenografted with human NCI-H2122 cells assessed as M1 metabolite formation in tumor at 50 mg/kg, ip after 3 hrs by LC-MS/MS analysis; format: ADME, organism-based, Neoplasm; details: in vivo
[26] = Drug metabolism in mouse xenografted with human NCI-H2122 cells assessed as M3 metabolite formation in kidney at 50 mg/kg, ip after 3 hrs by LC-MS/MS analysis; format: ADME, organism-based; details: in vivo
[27] = Drug uptake in kidney of mouse xenografted with human NCI-H2122 cells at 50 mg/kg, ip after 3 hrs by LC-MS/MS analysis; format: ADME, organism-based; details: read-out: Drug uptake
[28] = Drug uptake in lungs of mouse xenografted with human NCI-H2122 cells at 50 mg/kg, ip after 3 hrs by LC-MS/MS analysis; format: ADME, organism-based; details: lung, read-out: Drug uptake
[29] = Drug metabolism in mouse xenografted with human NCI-H2122 cells assessed as 6-amino-4-(2,5-dihydroxyphenyl)-3-(naphthalen-2-yl)-1,4-dihydropyrano[2,3-c]pyrazole-5-carbonitrile metabolite formation in heart at 50 mg/kg, ip after 3 hrs by LC-MS/MS analysis; format: ADME, organism-based; details: in vivo, BLD = below limit of detection
[30] = Plasma concentration in mouse xenografted with human NCI-H2122 cells at 50 mg/kg, ip after 3 hrs by LC-MS/MS analysis; format: ADME, organism-based
[31] = Drug metabolism in mouse xenografted with human NCI-H2122 cells assessed as M3 metabolite formation in tumor at 50 mg/kg, ip after 3 hrs by LC-MS/MS analysis; format: ADME, organism-based, Neoplasm; details: in vivo

Drug metabolism [1]: 33.5 ng/g
Drug metabolism [2]: 12.4 ng/g
Drug metabolism [3]: 1.1 ng/g
Drug metabolism [4]: 160.8 ng/g
Drug metabolism [5]: 2.7 ng/mL
Drug metabolism [6]: 20.9 ng/g
Drug metabolism [7]: 46.8 ng/g
concentration at 3 h [8]: 570 ng/g
concentration at 3 h [9]: 39700 ng/g
Drug metabolism [10]: Metabolite_Detected
Drug metabolism [11]: Metabolite_Detected
Drug metabolism [12]: 10.2 ng/g
Drug metabolism [13]: 0.6 ng/g
Drug metabolism [14]: 7.7 ng/mL
Drug metabolism [15]: 1.1 ng/g
Drug metabolism [16]: 1.4 ng/g
concentration at 3 h [17]: 13700 ng/g
Drug metabolism [18]: 49.6 ng/g
Drug metabolism [19]: 72.6 ng/g
Drug metabolism [20]: 8.4 ng/mL
Drug metabolism [21]: 135.2 ng/g
Drug metabolism [22]: Metabolite_Detected
Drug metabolism [23]: Metabolite_Detected
Drug metabolism [24]: 3.7 ng/g
Drug metabolism [25]: 7.4 ng/g
Drug metabolism [26]: 4.1 ng/g
concentration at 3 h [27]: 24600 ng/g
concentration at 3 h [28]: 21600 ng/g
Drug metabolism [29]: Bld
concentration at 3 h [30]: 3910 ng/mL
Drug metabolism [31]: 0.7 ng/g
Compound: COc1ccc(OC)c(C2C(C#N)=C(N)Oc3[nH]nc(-c4ccc5ccccc5c4)c32)c1 (stereo unspecified)

From ChEMBL document CHEMBL3870328, “Synthesis of novel Ral inhibitors: An in vitro and in vivo study” (Bioorg Med Chem Lett, 2016)
